Data from patent publication US11034650B2, “Compounds useful for treating a Mannheimia haemolytica or Histophilus somni infection” (Intervet Inc., priority 2016, dated 2021).
Converted amounts (≈) assume the structure as drawn.

Legend:
Type in all cases: cell-based
[1] = tested on: Mannheimia haemolytica MH 6357 (M7/2, reference strain, cattle infection strain); assay: MIC, broth-microdilution (CLSI VET01-A4), strain MH 6357; settings: Mannheimia haemolytica strain MH 6357, broth-microdilution; unit assumed
Outline: (§1)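 Read-out is unaided visual inspection for turbidity. The minimum inhibitory concentration is the lowest tested level without detectable growth across a two-fold compound series.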

[2] = tested on: Mannheimia haemolytica MH 6374 (ATCC 33396, reference strain); assay: MIC, broth-microdilution (CLSI VET01-A4), strain MH 6374; settings: Mannheimia haemolytica strain MH 6374, broth-microdilution; unit assumed
Outline: as §1

[3] = tested on: Mannheimia haemolytica MH 10720 (154, BRD field isolate); assay: MIC, broth-microdilution (CLSI VET01-A4), strain MH 10720; settings: Mannheimia haemolytica strain MH 10720, broth-microdilution; unit assumed
Outline: as §1

[4] = tested on: Mannheimia haemolytica MH 12587 (1071, BRD field isolate, macrolide-resistance: erm+, E+); assay: MIC, broth-microdilution (CLSI VET01-A4), strain MH 12587; settings: Mannheimia haemolytica strain MH 12587, broth-microdilution; unit assumed
Outline: as §1

[5] = tested on: Mannheimia haemolytica MH 13065 (XB0446-6003.9, BRD field isolate); assay: MIC, broth-microdilution (CLSI VET01-A4), strain MH 13065; settings: Mannheimia haemolytica strain MH 13065, broth-microdilution; unit assumed
Outline: as §1

[6] = tested on: Mannheimia haemolytica MH 13093 (XB0472-6014.1, BRD field isolate); assay: MIC, broth-microdilution (CLSI VET01-A4), strain MH 13093; settings: Mannheimia haemolytica strain MH 13093, broth-microdilution; unit assumed
Outline: as §1

[7] = tested on: Pasteurella multocida PM 6267 (P 2225 (L386), reference strain, mouse infection strain); assay: MIC, broth-microdilution (CLSI VET01-A4), strain PM 6267; settings: Pasteurella multocida strain PM 6267, broth-microdilution; unit assumed
Outline: as §1

[8] = tested on: Pasteurella multocida PM 6391 (ATCC 43137, reference strain); assay: MIC, broth-microdilution (CLSI VET01-A4), strain PM 6391; settings: Pasteurella multocida strain PM 6391, broth-microdilution; unit assumed
Outline: as §1

[9] = tested on: Pasteurella multocida PM 10775 (080130003051, BRD field isolate); assay: MIC, broth-microdilution (CLSI VET01-A4), strain PM 10775; settings: Pasteurella multocida strain PM 10775, broth-microdilution; unit assumed
Outline: as §1

[10] = tested on: Pasteurella multocida PM 12080 (IV102277-0093, BRD field isolate); assay: MIC, broth-microdilution (CLSI VET01-A4), strain PM 12080; settings: Pasteurella multocida strain PM 12080, broth-microdilution; unit assumed
Outline: as §1

Row | MIC PM 6267 [7] [µg/mL] | MIC PM 6391 [8] [µg/mL] | MIC PM 10775 [9] [µg/mL] | MIC PM 12080 [10] [µg/mL] | SMILES | MIC MH 6357 [1] [µg/mL] | MIC MH 6374 [2] [µg/mL] | MIC MH 10720 [3] [µg/mL] | MIC MH 12587 [4] [µg/mL] | MIC MH 13065 [5] [µg/mL] | MIC MH 13093 [6] [µg/mL]
1 | 0.2 (≈ 0.351 µM) | ≤ 0.1 | ≤ 0.1 | ≤ 0.1 | COc1ccc(CNCc2ccc(C#Cc3ccc(C(=O)N[C@H](C(=O)NO)C(C)(C)S(C)(=O)=O)cc3)s2)cc1 [Compound 316] | ≤ 0.1 | 0.2 (≈ 0.351 µM) | ≤ 0.1 | 0.8 (≈ 1.4 µM) | 0.2 (≈ 0.351 µM) | 0.4 (≈ 0.702 µM)
2 | 0.2 (≈ 0.37 µM) | ≤ 0.1 | ≤ 0.1 | ≤ 0.1 | CC(C)([C@H](NC(=O)c1ccc(C#Cc2ccc(CNCc3ccncc3)s2)cc1)C(=O)NO)S(C)(=O)=O [Compound 317] | 0.2 (≈ 0.37 µM) | 0.4 (≈ 0.74 µM) | ≤ 0.1 | 0.8 (≈ 1.48 µM) | 0.4 (≈ 0.74 µM) | 0.4 (≈ 0.74 µM)
3 | 0.8 (≈ 1.64 µM) | 0.8 (≈ 1.64 µM) | ≤ 0.1 | 0.2 (≈ 0.409 µM) | CC(C)([C@H](NC(=O)c1ccc(C#Cc2ccc(CNCC#N)s2)cc1)C(=O)NO)S(C)(=O)=O [Compound 318] | 0.4 (≈ 0.819 µM) | 0.8 (≈ 1.64 µM) | ≤ 0.1 | 1.6 (≈ 3.27 µM) | 0.8 (≈ 1.64 µM) | 1.6 (≈ 3.27 µM)
4 | 0.2 (≈ 0.37 µM) | ≤ 0.1 | ≤ 0.1 | ≤ 0.1 | CC(C)([C@H](NC(=O)c1ccc(C#Cc2ccc(CNCc3ccccn3)s2)cc1)C(=O)NO)S(C)(=O)=O [Compound 320] | 0.2 (≈ 0.37 µM) | ≤ 0.1 | ≤ 0.1 | 0.8 (≈ 1.48 µM) | 0.2 (≈ 0.37 µM) | 0.4 (≈ 0.74 µM)
5 | ≤ 0.1 | ≤ 0.1 | ≤ 0.1 | ≤ 0.1 | CC(C)([C@H](NC(=O)c1ccc(C#Cc2ccc(CNCc3ccco3)s2)cc1)C(=O)NO)S(C)(=O)=O [Compound 321] | ≤ 0.1 | ≤ 0.1 | ≤ 0.1 | 0.4 (≈ 0.755 µM) | 0.2 (≈ 0.378 µM) | 0.2 (≈ 0.378 µM)
6 | 0.4 (≈ 0.738 µM) | 0.2 (≈ 0.369 µM) | ≤ 0.1 | ≤ 0.1 | CC(C)([C@H](NC(=O)c1ccc(C#Cc2ccc(CNCc3ncccn3)s2)cc1)C(=O)NO)S(C)(=O)=O [Compound 322] | 0.4 (≈ 0.738 µM) | 1.6 (≈ 2.95 µM) | ≤ 0.1 | 1.6 (≈ 2.95 µM) | 0.8 (≈ 1.48 µM) | 0.8 (≈ 1.48 µM)
7 | 0.2 (≈ 0.367 µM) | ≤ 0.1 | ≤ 0.1 | ≤ 0.1 | Cc1cnc(CNCc2ccc(C#Cc3ccc(C(=O)N[C@H](C(=O)NO)C(C)(C)S(C)(=O)=O)cc3)s2)o1 [Compound 323] | 0.2 (≈ 0.367 µM) | 0.2 (≈ 0.367 µM) | ≤ 0.1 | 0.8 (≈ 1.47 µM) | 0.4 (≈ 0.734 µM) | 0.8 (≈ 1.47 µM)
8 | 0.4 (≈ 0.947 µM) | 0.4 (≈ 0.947 µM) | ≤ 0.1 | 0.2 (≈ 0.473 µM) | CC(C)(O)[C@H](NC(=O)c1ccc(C#Cc2ccc(CNC3CC3)nc2)cc1)C(=O)NO [Compound 324] | 0.4 (≈ 0.947 µM) | 0.8 (≈ 1.89 µM) | ≤ 0.1 | 1.6 (≈ 3.79 µM) | 0.8 (≈ 1.89 µM) | 1.6 (≈ 3.79 µM)
9 | 1.6 (≈ 3.63 µM) | 0.8 (≈ 1.82 µM) | ≤ 0.1 | 0.8 (≈ 1.82 µM) | COCCNCc1ccc(C#Cc2ccc(C(=O)N[C@H](C(=O)NO)C(C)(C)O)cc2)cn1 [Compound 325] | 0.8 (≈ 1.82 µM) | 1.6 (≈ 3.63 µM) | 0.4 (≈ 0.908 µM) | 3.1 (≈ 7.04 µM) | 1.6 (≈ 3.63 µM) | 3.1 (≈ 7.04 µM)
10 | 3.1 (≈ 6.85 µM) | 0.4 (≈ 0.884 µM) | ≤ 0.1 | 0.4 (≈ 0.884 µM) | CC(C)(O)[C@H](NC(=O)c1ccc(C#Cc2ccc(CN3CCOCC3)nc2)cc1)C(=O)NO [Compound 326] | 3.1 (≈ 6.85 µM) | 6.3 (≈ 13.9 µM) | 0.8 (≈ 1.77 µM) | 12.5 (≈ 27.6 µM) | 3.1 (≈ 6.85 µM) | 6.3 (≈ 13.9 µM)
11 | 0.4 (≈ 0.846 µM) | ≤ 0.1 | ≤ 0.1 | ≤ 0.1 | CC(C)(O)[C@H](NC(=O)c1ccc(C#Cc2ccc(CNCc3ccccc3)nc2)cc1)C(=O)NO [Compound 327] | 0.8 (≈ 1.69 µM) | 0.8 (≈ 1.69 µM) | ≤ 0.1 | 1.6 (≈ 3.39 µM) | 0.4 (≈ 0.846 µM) | 0.8 (≈ 1.69 µM)
12 | 0.8 (≈ 1.59 µM) | ≤ 0.1 | ≤ 0.1 | ≤ 0.1 | COc1ccc(CNCc2ccc(C#Cc3ccc(C(=O)N[C@H](C(=O)NO)C(C)(C)O)cc3)cn2)cc1 [Compound 328] | 0.8 (≈ 1.59 µM) | 0.8 (≈ 1.59 µM) | ≤ 0.1 | 1.6 (≈ 3.18 µM) | 0.8 (≈ 1.59 µM) | 0.8 (≈ 1.59 µM)
13 | 0.8 (≈ 1.69 µM) | 0.4 (≈ 0.845 µM) | ≤ 0.1 | 0.4 (≈ 0.845 µM) | CC(C)(O)[C@H](NC(=O)c1ccc(C#Cc2ccc(CNCc3ccncc3)nc2)cc1)C(=O)NO [Compound 329] | 0.8 (≈ 1.69 µM) | 1.6 (≈ 3.38 µM) | ≤ 0.1 | 3.1 (≈ 6.55 µM) | 0.8 (≈ 1.69 µM) | 1.6 (≈ 3.38 µM)
14 | 1.6 (≈ 3.38 µM) | 0.8 (≈ 1.69 µM) | ≤ 0.1 | 0.4 (≈ 0.845 µM) | CC(C)(O)[C@H](NC(=O)c1ccc(C#Cc2ccc(CNCc3cccnc3)nc2)cc1)C(=O)NO [Compound 330] | 0.8 (≈ 1.69 µM) | 0.8 (≈ 1.69 µM) | 0.2 (≈ 0.422 µM) | 3.1 (≈ 6.55 µM) | 1.6 (≈ 3.38 µM) | 1.6 (≈ 3.38 µM)
15 | 3.1 (≈ 6.55 µM) | 1.6 (≈ 3.38 µM) | 0.4 (≈ 0.845 µM) | 1.6 (≈ 3.38 µM) | CC(C)(O)[C@H](NC(=O)c1ccc(C#Cc2ccc(CNCc3ccccn3)nc2)cc1)C(=O)NO [Compound 331] | 1.6 (≈ 3.38 µM) | 3.1 (≈ 6.55 µM) | 0.4 (≈ 0.845 µM) | 6.3 (≈ 13.3 µM) | 3.1 (≈ 6.55 µM) | 6.3 (≈ 13.3 µM)
16 | 0.4 (≈ 0.865 µM) | 0.4 (≈ 0.865 µM) | ≤ 0.1 | 0.2 (≈ 0.432 µM) | CC(C)(O)[C@H](NC(=O)c1ccc(C#Cc2ccc(CNCc3ccco3)nc2)cc1)C(=O)NO [Compound 332] | 0.4 (≈ 0.865 µM) | 0.4 (≈ 0.865 µM) | ≤ 0.1 | 1.6 (≈ 3.46 µM) | 0.8 (≈ 1.73 µM) | 0.8 (≈ 1.73 µM)
17 | 0.4 (≈ 0.861 µM) | 0.4 (≈ 0.861 µM) | ≤ 0.1 | 0.2 (≈ 0.431 µM) | CC(C)(O)[C@H](NC(=O)c1ccc(C#Cc2ccc(CNCC(F)(F)F)nc2)cc1)C(=O)NO [Compound 333] | 0.4 (≈ 0.861 µM) | 0.8 (≈ 1.72 µM) | ≤ 0.1 | 1.6 (≈ 3.44 µM) | 0.8 (≈ 1.72 µM) | 1.6 (≈ 3.44 µM)
18 | 0.4 (≈ 0.838 µM) | 0.4 (≈ 0.838 µM) | ≤ 0.1 | 0.2 (≈ 0.419 µM) | Cc1cnc(CNCc2ccc(C#Cc3ccc(C(=O)N[C@H](C(=O)NO)C(C)(C)O)cc3)cn2)o1 [Compound 334] | 0.4 (≈ 0.838 µM) | 0.4 (≈ 0.838 µM) | ≤ 0.1 | 1.6 (≈ 3.35 µM) | 0.8 (≈ 1.68 µM) | 1.6 (≈ 3.35 µM)
19 | 0.4 (≈ 0.884 µM) | 0.4 (≈ 0.884 µM) | ≤ 0.1 | 0.2 (≈ 0.442 µM) | CSC(C)(C)[C@H](NC(=O)c1ccc(C#Cc2ccc(CNC3CC3)nc2)cc1)C(=O)NO [Compound 335] | 0.4 (≈ 0.884 µM) | 0.8 (≈ 1.77 µM) | ≤ 0.1 | 3.1 (≈ 6.85 µM) | 0.4 (≈ 0.884 µM) | 0.8 (≈ 1.77 µM)
20 | 0.8 (≈ 1.77 µM) | 1.6 (≈ 3.54 µM) | ≤ 0.1 | 0.8 (≈ 1.77 µM) | C=CCNCc1ccc(C#Cc2ccc(C(=O)N[C@H](C(=O)NO)C(C)(C)SC)cc2)cn1 [Compound 336] | 0.8 (≈ 1.77 µM) | 0.8 (≈ 1.77 µM) | 0.2 (≈ 0.442 µM) | 3.1 (≈ 6.85 µM) | 1.6 (≈ 3.54 µM) | 1.6 (≈ 3.54 µM)
21 | 3.1 (≈ 6.59 µM) | 1.6 (≈ 3.4 µM) | 0.2 (≈ 0.425 µM) | 0.8 (≈ 1.7 µM) | COCCNCc1ccc(C#Cc2ccc(C(=O)N[C@H](C(=O)NO)C(C)(C)SC)cc2)cn1 [Compound 337] | 3.1 (≈ 6.59 µM) | 3.1 (≈ 6.59 µM) | 0.8 (≈ 1.7 µM) | 6.3 (≈ 13.4 µM) | 6.3 (≈ 13.4 µM) | 3.1 (≈ 6.59 µM)
22 | 3.1 (≈ 6.42 µM) | 0.8 (≈ 1.66 µM) | ≤ 0.1 | 0.4 (≈ 0.829 µM) | CSC(C)(C)C(NC(=O)c1ccc(C#Cc2ccc(CN3CCOCC3)nc2)cc1)C(=O)NO (stereo not shown) [Compound 338] | 3.1 (≈ 6.42 µM) | 6.3 (≈ 13.1 µM) | 0.8 (≈ 1.66 µM) | 6.3 (≈ 13.1 µM) | 3.1 (≈ 6.42 µM) | 6.3 (≈ 13.1 µM)
